Patent US20240100006A1, “COMPOSITIONS AND METHODS USING AT LEAST ONE GLYCINE OR DERIVATIVE THEREOF AND AT LEAST ONE LARGE NEUTRAL AMINO ACID AND/OR CATIONIC AMINO ACID OR PRECURSOR THEREOF” (SOCIETE DES PRODUITS NESTLE S.A., priority 2020, published 2024)
Entries after “also recorded” stand apart in the source; their conditions may differ.

System: isolated mitochondria from skeletal muscle of zebrafish
Experiment: Acute oxidative stress and mitochondrial high-resolution respirometry
Assay type: in vivo
Protocol: Following the stress, fish were divided into controls and treatment groups. […] Fish exposed to the glycine and glucose treatment were incubated in water containing the compound of interest for 2 h at 28° C. at the following doses: 50, 200, 450 μM (Sigma-Aldrich) for glycine; 500 μM and 5 mM (Sigma-Aldrich) for glucose; 450 μM for glycine, arginine and methionine (Sigma-Aldrich). […] After BCA quantification of protein concentration, 150 μg of crude extract were used for high-resolution respirometry quantification. […] Up to three 02k instruments ([…]) were used in parallel. Experiments were performed at 28° C. in modified MiR05 (110 mM sucrose, 0.5 mM EGTA, 3 mM MgCl2, 20 mM taurine, 10 mM KH2PO4, 20 mM HEPES and 0.1% BSA essentially fatty acid free). Respiration of isolated mitochondria was determined using substrate-uncoupler-inhibitor titration (SUIT) protocols (Pesta and […], Methods Mol Biol. 2012; 810:25-58) with modifications. […] CI respiration was calculated as the difference between total respiration (CI+CII) and the addition of CI inhibitor rotenone (0.5 μM); CII respiration was calculated as the difference between inhibited CI respiration and the addition of CII inhibitor malonic acid (5 mM). Total respiration (CI+CII, Tot resp) was assessed as the difference of the respiration in presence of all substrates and the total inhibition of CI and CII.

| Structure (SMILES) | mitochondrial respiration (O2 consumption; Complex I dependent respiration) after acute oxidative stress (adult AB zebrafish, 3 μM menadione 2 h at 28° C., then compound in water 2 h, glycine 50, 200, 450 μM, glucose 500 μM and 5 mM, FIG. 3, n=3 per condition) | Complex I dependent respiration (acute oxidative stress inducer, 3 μM in water for 2 h at 28° C., FIG. 3) |
| --- | --- | --- |
| NCC(=O)O [glycine] | restores respiratory levels; also recorded: able to restore mitochondrial respiration | – |
| CC1=CC(=O)c2ccccc2C1=O [menadione, Menadione, reference compound] | – | decreasing Complex I dependent respiration |
